Test results published in US12297285B2 (Orna Therapeutics, Inc., priority 2022, dated 2025).

How the values were obtained:
Assay in all cases: IRES screening, Gaussia luciferase from LNP-oRNA (Table 27)
Conditions in all cases: Gaussia luciferase luminescence in supernatant 48 hours after LNP-oRNA transfection, normalized to control (caprine kobuvirus IRES)
[1] = test system: primary human skeletal myotubes
[2] = test system: primary human hepatocytes
[3] = test system: activated primary human T cells

For `CCCCCCCCCN(CCn1ccnc1)C(CCCCCCCCC(=O)OCC(CCCC)CCCCCC)CCCCCCCCC(=O)OCC(CCCC)CCCCCC` (stereo not drawn) [Lipid 10a-146], the “[Mod] Fold Change Myo” value [1] was 0.04323 Fold Change, the “[Mod] PHH Fold Change” value [2] was 0.5873 Fold Change and the “[Mod] T Fold Change” value [3] was 0.03465 Fold Change.

`CCCCCCCCCCCCCCN(CCC(C)n1ccnc1)C(CCCCCCCCC(=O)OCC(CCCC)CCCCCC)CCCCCCCCC(=O)OCC(CCCC)CCCCCC` (stereo not drawn) [Lipid 10a-134] was tested, and the “[Mod] Fold Change Myo” value [1] was 0.04662 Fold Change, the “[Mod] PHH Fold Change” value [2] was 0.4673 Fold Change and the “[Mod] T Fold Change” value [3] was 0.05294 Fold Change.

For `CC(C)=CCCC(C)CC(=O)OCCCCCCC(CCCCCCOC(=O)CC(C)CCC=C(C)C)OC(=O)CCCn1ccnc1C` (stereo not drawn) [Lipid 10a-119], the “[Mod] Fold Change Myo” value [1] was 0.198 Fold Change, the “[Mod] PHH Fold Change” value [2] was 0.6212 Fold Change and the “[Mod] T Fold Change” value [3] was 0.9876 Fold Change.

With `CC(C)CCC(COC(=O)CCCCCCCC(CCCCCCCC(=O)OCC(CCC(C)C)C(C)C)OC(=O)CCCn1ccnc1)C(C)C` (stereo not drawn) [Lipid 10a-97] the “[Mod] Fold Change Myo” value [1] was 0.2602 Fold Change, the “[Mod] PHH Fold Change” value [2] was 1.163 Fold Change and the “[Mod] T Fold Change” value [3] was 0.3532 Fold Change.

For `Cc1nccn1CCCN(CCCCCCCC(=O)OCC(CCC(C)C)C(C)C)CCCCCCCC(=O)OCC(CCC(C)C)C(C)C` (stereo not drawn) [Lipid 10a-99], the “[Mod] Fold Change Myo” value [1] was 0.1639 Fold Change, the “[Mod] PHH Fold Change” value [2] was 1.02 Fold Change and the “[Mod] T Fold Change” value [3] was 0.2767 Fold Change.

`CC(C)=CCC/C(C)=C/C(=O)OCCCCCCC(CCCCCCOC(=O)/C=C(\C)CCC=C(C)C)OC(=O)CCCn1ccnc1` (stereo not drawn) [Lipid 10a-120] was tested, and the “[Mod] Fold Change Myo” value [1] was 0.2755 Fold Change, the “[Mod] PHH Fold Change” value [2] was 0.4893 Fold Change and the “[Mod] T Fold Change” value [3] was 0.7019 Fold Change.

In the case of `CC(CCOC(=O)CCCCCCCCC(CCCCCCCCC(=O)OCCC(C)CC(C)(C)C)OC(=O)CCCn1ccnc1)CC(C)(C)C` (stereo not drawn) [Lipid 10a-105], the “[Mod] Fold Change Myo” value [1] is reported as 0.2496 Fold Change, the “[Mod] PHH Fold Change” value [2] is reported as 0.642 Fold Change and the “[Mod] T Fold Change” value [3] is reported as 0.329 Fold Change.

In the case of `CC(C)=CCC/C(C)=C/C(=O)OCCCCCCN(CCCCCCOC(=O)/C=C(\C)CCC=C(C)C)CCCn1ccnc1` [Lipid 10a-126], the “[Mod] Fold Change Myo” value [1] is reported as 0.05793 Fold Change, the “[Mod] PHH Fold Change” value [2] is reported as 0.6456 Fold Change and the “[Mod] T Fold Change” value [3] is reported as 0.06647 Fold Change.

In the case of `CC(C)CCC(C)CCOC(=O)CCCCCCCC(CCCCCCCC(=O)OCCC(C)CCC(C)C)OC(=O)CCCn1ccnc1` (stereo not drawn) [Lipid 10a-101], the “[Mod] Fold Change Myo” value [1] is reported as 0.533 Fold Change, the “[Mod] PHH Fold Change” value [2] is reported as 1.37 Fold Change and the “[Mod] T Fold Change” value [3] is reported as 0.853 Fold Change.

`Cc1nccn1CCCC(=O)OC(CCCCCCCCC(=O)OCCC(C)CC(C)(C)C)CCCCCCCCC(=O)OCCC(C)CC(C)(C)C` (stereo not drawn) [Lipid 10a-107] was tested, and the “[Mod] Fold Change Myo” value [1] was 0.2879 Fold Change, the “[Mod] PHH Fold Change” value [2] was 1.119 Fold Change and the “[Mod] T Fold Change” value [3] was 0.9371 Fold Change.

For `CCCCC(C)CCC(=O)OCCCCCCN(CCCCCCOC(=O)CCC(C)CCCC)CCCn1ccnc1` (stereo not drawn) [Lipid 10a-112], the “[Mod] Fold Change Myo” value [1] was 0.3711 Fold Change, the “[Mod] PHH Fold Change” value [2] was 0.8075 Fold Change and the “[Mod] T Fold Change” value [3] was 0.637 Fold Change.

With `CC(C)CCCC(C)CC(=O)OCCCCCCN(CCCCCCOC(=O)CC(C)CCCC(C)C)CCCn1ccnc1` (stereo not drawn) [Lipid 10a-122] the “[Mod] Fold Change Myo” value [1] was 0.3886 Fold Change, the “[Mod] PHH Fold Change” value [2] was 0.8322 Fold Change and the “[Mod] T Fold Change” value [3] was 0.8876 Fold Change.

In the case of `CCCCC(C)CCC(=O)OCCCCCCC(CCCCCCOC(=O)CCC(C)CCCC)OC(=O)CCCn1ccnc1` (stereo not drawn) [Lipid 10a-113], the “[Mod] Fold Change Myo” value [1] is reported as 0.3171 Fold Change, the “[Mod] PHH Fold Change” value [2] is reported as 0.8279 Fold Change and the “[Mod] T Fold Change” value [3] is reported as 0.4373 Fold Change.

For `CC(C)CCC(C)CCOC(=O)CCCCCCCN(CCCCCCCC(=O)OCCC(C)CCC(C)C)CCCn1ccnc1` (stereo not drawn) [Lipid 10a-100], the “[Mod] Fold Change Myo” value [1] was 0.4952 Fold Change, the “[Mod] PHH Fold Change” value [2] was 1.228 Fold Change and the “[Mod] T Fold Change” value [3] was 0.4826 Fold Change.

For `CCCCC(CC)CCC(=O)OCCCCCCN(CCCCCCOC(=O)CCC(CC)CCCC)CCCn1ccnc1` (stereo not drawn) [Lipid 10a-109], the “[Mod] Fold Change Myo” value [1] was 0.2492 Fold Change, the “[Mod] PHH Fold Change” value [2] was 0.8533 Fold Change and the “[Mod] T Fold Change” value [3] was 0.6261 Fold Change.

With `Cc1nccn1CCCN(CCCCCCOC(=O)CC(C)CCCC(C)C)CCCCCCOC(=O)CC(C)CCCC(C)C` (stereo not drawn) [Lipid 10a-123] the “[Mod] Fold Change Myo” value [1] was 0.03971 Fold Change, the “[Mod] PHH Fold Change” value [2] was 0.638 Fold Change and the “[Mod] T Fold Change” value [3] was 0.03011 Fold Change.

In the case of `CCCCCCCCC(CCCCCC)C(=O)OCCCCCCN(CCCn1ccnc1C)CC(O)CCCCOC(=O)C(CCCCCC)CCCCCCCC` (stereo not drawn) [Lipid 10a-149], the “[Mod] Fold Change Myo” value [1] is reported as 0.03919 Fold Change, the “[Mod] PHH Fold Change” value [2] is reported as 0.7118 Fold Change and the “[Mod] T Fold Change” value [3] is reported as 0.02893 Fold Change.

For `CCCCCCCCCOC(=O)CCCCCCCN(CCCCCCCC(=O)OC(CCCCCCCC)CCCCCCCC)Cc1nccn1C` [Lipid 10a-133], the “[Mod] Fold Change Myo” value [1] was 0.03933 Fold Change, the “[Mod] PHH Fold Change” value [2] was 0.541 Fold Change and the “[Mod] T Fold Change” value [3] was 0.03004 Fold Change.

For `CCCCCCCCCN(CCn1ccnc1C)C(CCCCCCCCC(=O)OCC(CCCC)CCCCCC)CCCCCCCCC(=O)OCC(CCCC)CCCCCC` (stereo not drawn) [Lipid 10a-145], the “[Mod] Fold Change Myo” value [1] was 0.03927 Fold Change, the “[Mod] PHH Fold Change” value [2] was 0.6359 Fold Change and the “[Mod] T Fold Change” value [3] was 0.0263 Fold Change.

`CCCCCCCCCN(CCCn1ccnc1)C(CCCCCCCCC(=O)OCC(CCCC)CCCCCC)CCCCCCCCC(=O)OCC(CCCC)CCCCCC` (stereo not drawn) [Lipid 10a-142] was tested, and the “[Mod] Fold Change Myo” value [1] was 0.03852 Fold Change, the “[Mod] PHH Fold Change” value [2] was 0.468 Fold Change and the “[Mod] T Fold Change” value [3] was 0.02743 Fold Change.

In the case of `Cc1nccn1CCCC(=O)OC(CCCCCCCC(=O)OCC(CCC(C)C)C(C)C)CCCCCCCC(=O)OCC(CCC(C)C)C(C)C` (stereo not drawn) [Lipid 10a-98], the “[Mod] Fold Change Myo” value [1] is reported as 0.2906 Fold Change, the “[Mod] PHH Fold Change” value [2] is reported as 0.788 Fold Change and the “[Mod] T Fold Change” value [3] is reported as 0.677 Fold Change.

With `CC(C)=CCC/C(C)=C/C(=O)OCCCCCCN(CCCCCCOC(=O)/C=C(\C)CCC=C(C)C)CCCn1ccnc1C` [Lipid 10a-127] the “[Mod] Fold Change Myo” value [1] was 0.2936 Fold Change, the “[Mod] PHH Fold Change” value [2] was 0.6745 Fold Change and the “[Mod] T Fold Change” value [3] was 0.6858 Fold Change.

For `Cc1nccn1CCCN(CCCCCCCCC(=O)OCCC(C)CC(C)(C)C)CCCCCCCCC(=O)OCCC(C)CC(C)(C)C` (stereo not drawn) [Lipid 10a-106], the “[Mod] Fold Change Myo” value [1] was 0.3524 Fold Change, the “[Mod] PHH Fold Change” value [2] was 1.093 Fold Change and the “[Mod] T Fold Change” value [3] was 0.648 Fold Change.

For `CCCCCCCCCOC(=O)CCCCCCCN(CCCCCCCC(=O)OC(CCCCCCCC)CCCCCCCC)CCn1ccnc1` [Lipid 10a-132], the “[Mod] Fold Change Myo” value [1] was 0.03998 Fold Change, the “[Mod] PHH Fold Change” value [2] was 0.5643 Fold Change and the “[Mod] T Fold Change” value [3] was 0.03118 Fold Change.

`CCCCCCCCC(CCCCCC)OCCOC(=O)CCN(CCCn1ccnc1C)CCC(=O)OCCOC(CCCCCC)CCCCCCCC` (stereo not drawn) [Lipid 10a-143] was tested, and the “[Mod] Fold Change Myo” value [1] was 0.03901 Fold Change, the “[Mod] PHH Fold Change” value [2] was 0.4209 Fold Change and the “[Mod] T Fold Change” value [3] was 0.03265 Fold Change.

With `CCCCC(C)CCC(=O)OCCCCCCC(CCCCCCOC(=O)CCC(C)CCCC)OC(=O)CCCn1ccnc1C` (stereo not drawn) [Lipid 10a-115] the “[Mod] Fold Change Myo” value [1] was 0.05074 Fold Change, the “[Mod] PHH Fold Change” value [2] was 0.425 Fold Change and the “[Mod] T Fold Change” value [3] was 0.04693 Fold Change.

`CCCCCCCCCOC(=O)CCCCCCCN(CCCCCCCC(=O)OC(CCCCCCCC)CCCCCCCC)CCC(C)n1ccnc1` (stereo not drawn) [Lipid 10a-131] was tested, and the “[Mod] Fold Change Myo” value [1] was 0.03951 Fold Change, the “[Mod] PHH Fold Change” value [2] was 0.5348 Fold Change and the “[Mod] T Fold Change” value [3] was 0.03336 Fold Change.
